Data: article PMC3382171 (PLoS ONE, 2012)

Assays:
Test in all cases: biochemical
Set-up in all cases: Invitrogen SelectScreen kinase panel, percent inhibition at 1 uM, ATP at Km
Details in all cases: read-out: Invitrogen KSS %Inh at 1 µM
ABL1 = ABL1 (Homo sapiens, UniProt P00519)
Procedure, shortened: (§1)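 Commercial kinase panel screens run with ATP at the Km for each kinase. Compounds tested at 1 µM final concentration; values are % inhibition of phosphorylation relative to control.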

ABL1 T315I = ABL1 T315I (Homo sapiens, UniProt P00519, T315I)
Procedure, shortened: as §1

AKT2 (PKB beta) = AKT2 (PKB beta) (Homo sapiens, UniProt P31751)
Chain of AKT2 (PKB beta) (P31751 whole entry): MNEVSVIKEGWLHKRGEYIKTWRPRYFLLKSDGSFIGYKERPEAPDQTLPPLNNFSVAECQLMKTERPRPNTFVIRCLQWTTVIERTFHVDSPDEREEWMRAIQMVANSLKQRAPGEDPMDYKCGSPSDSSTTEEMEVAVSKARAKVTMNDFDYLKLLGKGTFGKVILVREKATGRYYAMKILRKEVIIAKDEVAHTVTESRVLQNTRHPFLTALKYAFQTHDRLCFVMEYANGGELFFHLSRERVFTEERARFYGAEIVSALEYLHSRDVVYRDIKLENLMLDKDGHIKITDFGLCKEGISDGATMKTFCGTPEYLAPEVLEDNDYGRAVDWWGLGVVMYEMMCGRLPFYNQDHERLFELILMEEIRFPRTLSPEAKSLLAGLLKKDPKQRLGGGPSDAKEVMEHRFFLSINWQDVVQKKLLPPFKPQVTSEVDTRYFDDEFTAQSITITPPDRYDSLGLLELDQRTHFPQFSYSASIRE
Procedure, shortened: as §1

CDC42 BPB (MRCKB) = molecular target: T1, CDC42 BPB (MRCKB) (Homo sapiens, UniProt Q9Y5S2)
T1 construct: gene CDC42BPB
Procedure, shortened: as §1

CDK1/cyclinB = CDK1/cyclinB (Homo sapiens, UniProt P06493)
Procedure, shortened: as §1

CLK1 = CLK1 (Homo sapiens, UniProt P49759)
Procedure, shortened: as §1

DAPK3 (ZIPK) = DAPK3 (ZIPK) (Homo sapiens, UniProt O43293)
Procedure, shortened: as §1

EPHA2 = EPHA2 (Homo sapiens, UniProt P29317)
Chain of EPHA2 (P29317 whole entry): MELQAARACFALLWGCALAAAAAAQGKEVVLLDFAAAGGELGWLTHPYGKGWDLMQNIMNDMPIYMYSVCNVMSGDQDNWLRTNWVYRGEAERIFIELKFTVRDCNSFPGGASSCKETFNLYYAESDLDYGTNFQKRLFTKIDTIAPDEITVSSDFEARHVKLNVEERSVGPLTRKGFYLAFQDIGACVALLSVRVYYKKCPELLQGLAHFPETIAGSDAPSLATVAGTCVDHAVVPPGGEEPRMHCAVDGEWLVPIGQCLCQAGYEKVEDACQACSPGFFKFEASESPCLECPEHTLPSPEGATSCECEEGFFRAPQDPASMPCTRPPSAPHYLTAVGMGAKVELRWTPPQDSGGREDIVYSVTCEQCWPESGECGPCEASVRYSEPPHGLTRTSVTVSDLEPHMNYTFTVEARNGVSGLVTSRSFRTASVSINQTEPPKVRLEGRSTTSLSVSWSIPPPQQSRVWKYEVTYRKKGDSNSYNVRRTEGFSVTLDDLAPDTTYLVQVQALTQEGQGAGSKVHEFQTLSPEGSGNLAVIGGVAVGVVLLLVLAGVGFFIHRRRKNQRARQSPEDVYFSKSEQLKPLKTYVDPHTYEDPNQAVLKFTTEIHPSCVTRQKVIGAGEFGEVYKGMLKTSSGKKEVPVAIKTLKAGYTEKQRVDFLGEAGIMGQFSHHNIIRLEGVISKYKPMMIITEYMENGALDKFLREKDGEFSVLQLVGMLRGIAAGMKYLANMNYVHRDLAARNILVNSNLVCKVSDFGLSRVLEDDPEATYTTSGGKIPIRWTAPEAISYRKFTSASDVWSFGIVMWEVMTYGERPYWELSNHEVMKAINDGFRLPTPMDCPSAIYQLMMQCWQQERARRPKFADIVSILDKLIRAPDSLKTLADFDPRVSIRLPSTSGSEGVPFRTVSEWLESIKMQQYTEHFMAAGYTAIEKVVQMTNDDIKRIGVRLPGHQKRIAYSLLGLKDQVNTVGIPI
Procedure, shortened: as §1

EPHB2 = EPHB2 (Homo sapiens, UniProt P29323)
Procedure, shortened: as §1

EPHB4 = EPHB4 (Homo sapiens, UniProt P54760)
Chain of EPHB4 (P54760 whole entry): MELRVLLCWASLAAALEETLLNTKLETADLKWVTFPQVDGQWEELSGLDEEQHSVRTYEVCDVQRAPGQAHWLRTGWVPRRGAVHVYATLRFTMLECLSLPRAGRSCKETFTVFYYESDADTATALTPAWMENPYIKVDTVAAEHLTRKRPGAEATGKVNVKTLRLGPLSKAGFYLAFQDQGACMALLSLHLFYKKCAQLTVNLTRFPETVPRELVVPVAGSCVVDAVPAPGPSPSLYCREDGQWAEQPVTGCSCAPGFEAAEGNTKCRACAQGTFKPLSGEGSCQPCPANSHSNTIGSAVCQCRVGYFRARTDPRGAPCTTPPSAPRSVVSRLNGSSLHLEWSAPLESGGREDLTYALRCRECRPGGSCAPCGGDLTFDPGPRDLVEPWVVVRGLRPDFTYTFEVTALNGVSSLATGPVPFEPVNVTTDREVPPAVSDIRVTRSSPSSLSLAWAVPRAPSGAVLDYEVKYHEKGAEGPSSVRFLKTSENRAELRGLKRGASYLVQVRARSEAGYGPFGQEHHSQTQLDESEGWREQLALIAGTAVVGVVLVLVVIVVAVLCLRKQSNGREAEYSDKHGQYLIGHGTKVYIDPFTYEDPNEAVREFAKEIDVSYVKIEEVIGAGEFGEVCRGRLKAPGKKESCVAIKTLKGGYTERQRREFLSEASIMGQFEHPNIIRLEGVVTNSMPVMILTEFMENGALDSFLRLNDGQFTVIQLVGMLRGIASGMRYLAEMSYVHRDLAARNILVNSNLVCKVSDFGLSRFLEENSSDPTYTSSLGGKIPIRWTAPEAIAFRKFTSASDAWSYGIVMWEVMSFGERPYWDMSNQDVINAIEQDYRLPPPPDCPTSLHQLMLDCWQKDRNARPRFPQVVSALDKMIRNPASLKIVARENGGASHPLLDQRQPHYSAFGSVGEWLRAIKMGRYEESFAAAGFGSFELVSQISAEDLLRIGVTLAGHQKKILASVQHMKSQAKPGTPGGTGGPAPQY
Procedure, shortened: as §1

FGFR1 = FGFR1 (Homo sapiens, UniProt P11362)
Procedure, shortened: as §1

JAK3 = JAK3 (Homo sapiens, UniProt P52333)
Chain of JAK3 (P52333 whole entry): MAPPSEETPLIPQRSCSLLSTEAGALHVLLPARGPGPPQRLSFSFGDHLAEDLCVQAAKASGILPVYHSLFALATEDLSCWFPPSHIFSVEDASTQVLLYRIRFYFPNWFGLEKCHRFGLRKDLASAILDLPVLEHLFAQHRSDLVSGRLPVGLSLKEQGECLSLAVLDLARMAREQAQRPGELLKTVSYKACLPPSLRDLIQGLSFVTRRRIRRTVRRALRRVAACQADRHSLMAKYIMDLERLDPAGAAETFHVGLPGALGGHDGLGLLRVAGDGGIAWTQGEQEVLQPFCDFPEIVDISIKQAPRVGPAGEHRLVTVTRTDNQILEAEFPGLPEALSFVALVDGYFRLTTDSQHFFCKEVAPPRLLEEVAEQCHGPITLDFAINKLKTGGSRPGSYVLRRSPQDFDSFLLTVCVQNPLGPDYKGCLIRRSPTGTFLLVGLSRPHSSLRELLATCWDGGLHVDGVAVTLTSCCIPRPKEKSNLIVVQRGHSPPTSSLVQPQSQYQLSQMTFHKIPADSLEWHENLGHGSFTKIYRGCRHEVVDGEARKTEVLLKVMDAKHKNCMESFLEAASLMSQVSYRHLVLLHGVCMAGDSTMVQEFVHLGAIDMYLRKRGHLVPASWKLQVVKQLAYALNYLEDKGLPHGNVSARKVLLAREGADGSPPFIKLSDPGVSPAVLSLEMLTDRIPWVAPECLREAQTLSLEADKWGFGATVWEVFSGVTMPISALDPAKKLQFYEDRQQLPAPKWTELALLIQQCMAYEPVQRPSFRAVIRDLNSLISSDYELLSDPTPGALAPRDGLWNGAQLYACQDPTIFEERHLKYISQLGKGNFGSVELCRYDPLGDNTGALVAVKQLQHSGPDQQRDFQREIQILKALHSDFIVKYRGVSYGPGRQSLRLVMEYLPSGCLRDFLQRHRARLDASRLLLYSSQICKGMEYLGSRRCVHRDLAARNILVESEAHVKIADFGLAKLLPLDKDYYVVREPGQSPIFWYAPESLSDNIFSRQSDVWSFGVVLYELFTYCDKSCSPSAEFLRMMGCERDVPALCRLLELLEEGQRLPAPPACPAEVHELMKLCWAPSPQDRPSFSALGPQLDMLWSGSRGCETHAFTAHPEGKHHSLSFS
Procedure, shortened: as §1

KIT T670I = KIT T670I (Homo sapiens, UniProt P10721, T670I)
Procedure, shortened: as §1

MAPKAPK2 = MAPKAPK2 (Homo sapiens, UniProt P49137)
Chain of MAPKAPK2 (P49137 whole entry): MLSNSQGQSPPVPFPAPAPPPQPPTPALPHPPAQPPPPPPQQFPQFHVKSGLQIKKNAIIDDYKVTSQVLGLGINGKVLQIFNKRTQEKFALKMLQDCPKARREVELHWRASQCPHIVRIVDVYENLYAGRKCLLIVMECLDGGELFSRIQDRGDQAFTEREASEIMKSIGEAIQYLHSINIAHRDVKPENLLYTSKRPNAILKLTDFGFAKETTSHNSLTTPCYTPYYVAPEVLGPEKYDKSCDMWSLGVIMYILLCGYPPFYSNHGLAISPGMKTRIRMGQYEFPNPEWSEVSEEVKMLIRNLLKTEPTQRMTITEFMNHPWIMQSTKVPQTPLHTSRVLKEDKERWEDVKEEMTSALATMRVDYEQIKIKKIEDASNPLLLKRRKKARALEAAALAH
Procedure, shortened: as §1

PAK6 = PAK6 (Homo sapiens, UniProt Q9NQU5)
Procedure, shortened: as §1

PIK3CG (p110 gamma) = PIK3CG (p110 gamma) (Homo sapiens, UniProt P48736)
Procedure, shortened: as §1

PRKCQ (PKC theta) = PRKCQ (PKC theta) (Homo sapiens, UniProt Q04759)
Procedure, shortened: as §1

PTK2B (FAK2) = PTK2B (FAK2) (Homo sapiens, UniProt Q14289)
Procedure, shortened: as §1

RET = RET (Homo sapiens, UniProt P07949)
Procedure, shortened: as §1

SRC = SRC (Homo sapiens, UniProt P12931)
Chain of SRC (P12931 whole entry): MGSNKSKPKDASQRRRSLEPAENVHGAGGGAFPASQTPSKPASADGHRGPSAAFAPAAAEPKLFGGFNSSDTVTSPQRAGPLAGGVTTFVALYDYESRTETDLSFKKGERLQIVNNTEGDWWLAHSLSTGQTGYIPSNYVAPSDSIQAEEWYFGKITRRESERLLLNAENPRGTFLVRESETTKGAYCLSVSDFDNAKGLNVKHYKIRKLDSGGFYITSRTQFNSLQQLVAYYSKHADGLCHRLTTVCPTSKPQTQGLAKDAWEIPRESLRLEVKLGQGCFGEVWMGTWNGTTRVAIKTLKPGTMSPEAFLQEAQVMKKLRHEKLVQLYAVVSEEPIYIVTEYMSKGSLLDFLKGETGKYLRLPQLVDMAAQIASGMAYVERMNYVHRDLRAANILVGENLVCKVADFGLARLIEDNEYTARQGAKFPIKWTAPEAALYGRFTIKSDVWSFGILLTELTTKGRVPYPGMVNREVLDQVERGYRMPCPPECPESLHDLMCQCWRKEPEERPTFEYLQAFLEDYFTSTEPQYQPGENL
Procedure, shortened: as §1

YES1 = YES1 (Homo sapiens, UniProt P07947)
Chain of YES1 (P07947 whole entry): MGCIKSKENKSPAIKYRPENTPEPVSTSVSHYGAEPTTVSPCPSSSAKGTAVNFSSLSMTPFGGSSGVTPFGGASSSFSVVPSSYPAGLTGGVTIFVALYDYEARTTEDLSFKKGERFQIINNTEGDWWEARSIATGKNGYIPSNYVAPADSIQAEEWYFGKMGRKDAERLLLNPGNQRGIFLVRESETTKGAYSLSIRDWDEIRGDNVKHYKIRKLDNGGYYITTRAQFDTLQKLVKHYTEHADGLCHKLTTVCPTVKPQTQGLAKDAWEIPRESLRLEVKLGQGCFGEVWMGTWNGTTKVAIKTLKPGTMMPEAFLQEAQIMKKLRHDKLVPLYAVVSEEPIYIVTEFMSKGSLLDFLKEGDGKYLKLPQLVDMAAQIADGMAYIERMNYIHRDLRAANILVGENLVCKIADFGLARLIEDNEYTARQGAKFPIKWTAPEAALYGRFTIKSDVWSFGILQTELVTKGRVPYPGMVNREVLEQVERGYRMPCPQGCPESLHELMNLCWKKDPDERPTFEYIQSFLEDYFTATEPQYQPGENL
Procedure, shortened: as §1

ZAP70 = ZAP70 (Homo sapiens, UniProt P43403)
Procedure, shortened: as §1

inhibition at 1 µM (ABL1): 6%
inhibition at 1 µM (ABL1 T315I): -21%
inhibition at 1 µM (AKT2 (PKB beta)): 6%
inhibition at 1 µM (CDC42 BPB (MRCKB)): 21%
inhibition at 1 µM (CDK1/cyclinB): -1%
inhibition at 1 µM (CLK1): 1%
inhibition at 1 µM (DAPK3 (ZIPK)): 5%
inhibition at 1 µM (EPHA2): -2%
inhibition at 1 µM (EPHB2): 3%
inhibition at 1 µM (EPHB4): 2%
inhibition at 1 µM (FGFR1): 1%
inhibition at 1 µM (JAK3): 9%
inhibition at 1 µM (KIT T670I): 36%
inhibition at 1 µM (MAPKAPK2): 3%
inhibition at 1 µM (PAK6): 10%
inhibition at 1 µM (PIK3CG (p110 gamma)): 12%
inhibition at 1 µM (PRKCQ (PKC theta)): -2%
inhibition at 1 µM (PTK2B (FAK2)): 6%
inhibition at 1 µM (RET): 12%
inhibition at 1 µM (SRC): 1%
inhibition at 1 µM (YES1): 16%
inhibition at 1 µM (ZAP70): 3%
SMILES: N#CCCNc1nccc(-c2cn(CC(F)F)nc2-c2cnc3[nH]ccc3c2)n1 [RAFi, PF-04880594]
